Values after ≈ are worked out from the molar mass of the structure shown. Where two headings read alike, the source gives them in different places.
Legend:
[1] = system: CP Control; experiment: Broth dilution antifungal susceptibility testing, CP Control; type: cell-based; conditions: read-out: minimum inhibitory concentration (MIC)
Method: (§1) A total of 23 isolates were tested to include 3 Candida albicans, 3 Candida glabrata, 3 Cryptococcus neoformans, 3 Aspergillus fumigatus, 3 Rhizopus oryzae, 3, Fusarium solani, 3 Pseudallescheria boydii, and 2 […]. All isolates were clinical isolates submitted to the Fungus Testing Laboratory for evaluation. Antifungal susceptibility testing was accomplished according to the methods outlined in the National Committee for Clinical Laboratory Standards, M-27A2, Reference Method for Broth Dilution Antifungal Susceptibility Testing of Yeasts; Approved Standard, and M38-A “Reference Method for Broth Dilution Antifungal Susceptibility Testing of Conidium-Forming Filamentous Fungi; Approved Standard”. This includes testing in RPMI-1640 with glutamine and without bicarbonate, an inoculum size of 0.5-2.5×10^3 for yeasts or […] for moulds, and incubation at 35° C. for 24 and 48 hours. […] Drug concentrations were 0.125-64 μg/ml. A 10 mg portion of each powder was weighed out and added to 1 ml of 100% DMSO for compound 205. The resulting concentration of […] was diluted to a working concentration of 6400 μg/ml for compound 205 in 100% DMSO. All subsequent dilutions were also made using the respective diluents. Final testing concentrations ranged from 0.125-64 μg/ml. The NCCLS recommended medium RPMI-1640 (Hardy Diagnostics, Santa Monica, Calif.) was utilized as the test medium. All isolates in this study were clinical isolates received in the Fungus Testing Laboratory for standard antifungal susceptibility testing and/or identification. Isolates, which were not sent for identification, were confirmed to assure testing integrity. A total of 23 were tested to include 3 Candida albicans, 3 Candida glabrata, 3 Cryptococcus neoformans, 3 Aspergillus fumigatus, 3 Rhizopus oryzae, 3, Fusarium solani, 3 Pseudallescheria boydii, and 2 […]. Minimum inhibitory concentrations (MIC) were determined at the first 24-hour interval where growth could be determined in the drug-free control tube.

[2] = system: C. albicans; experiment: Broth dilution antifungal susceptibility testing, C. albicans; type: cell-based, Candida albicans; conditions: 50% reduction in turbidity; for MIC: Candida albicans, read-out: minimum inhibitory concentration (MIC)
Method: as §1

[3] = system: C. glabrata; experiment: Broth dilution antifungal susceptibility testing, C. glabrata; type: cell-based, Candida glabrata; conditions: 50% reduction in turbidity; for MIC: Nakaseomyces glabratus, read-out: minimum inhibitory concentration (MIC)
Method: as §1

[4] = system: C. neoformans; experiment: Broth dilution antifungal susceptibility testing, C. neoformans; type: cell-based; conditions: Cryptococcus neoformans, 50% reduction in turbidity, read-out: minimum inhibitory concentration (MIC)
Method: as §1

[5] = system: R. arrhizus; experiment: Broth dilution antifungal susceptibility testing, R. arrhizus; type: cell-based, Rhizopus oryzae; conditions: 80% inhibition; for MIC: Rhizopus arrhizus, read-out: minimum inhibitory concentration (MIC)
Method: as §1

[6] = system: F. solani; experiment: Broth dilution antifungal susceptibility testing, F. solani; type: cell-based; conditions: Fusarium solani, 80% inhibition, read-out: minimum inhibitory concentration (MIC)
Method: as §1

[7] = system: S. apiospermum; experiment: Broth dilution antifungal susceptibility testing, S. apiospermum; type: cell-based, Pseudallescheria boydii; conditions: 80% inhibition; for MIC: Scedosporium apiospermum, read-out: minimum inhibitory concentration (MIC)
Method: as §1

[8] = system: A. fumigatus; experiment: Broth dilution antifungal susceptibility testing, A. fumigatus; type: cell-based, Aspergillus fumigatus; conditions: 80% inhibition; for MIC: Aspergillus fumigatus, read-out: minimum inhibitory concentration (MIC)
Method: as §1

[9] = system: T. rubrum; experiment: Broth dilution antifungal susceptibility testing, T. rubrum; type: cell-based, Trichophyton rubrum; conditions: 80% inhibition; for MIC: Trichophyton rubrum, read-out: minimum inhibitory concentration (MIC)
Method: as §1

[10] = system: cell line U-87; experiment: Activity against the cell line U-87; type: cell-based, human; conditions: potency on an equimolar basis
[11] = 24 h, isolate 07-3006, 24 hours
[12] = 24 h, isolate 07-3011, 24 hours
[13] = 24 h, isolate 07-3012, 24 hours
[14] = 48 h, isolate 07-3006, 48 hours
[15] = 48 h, isolate 07-3011, 48 hours
[16] = 48 h, isolate 07-3012, 48 hours
[17] = 24 h, isolate 07-2964, 24 hours
[18] = 24 h, isolate 07-2965, 24 hours
[19] = 24 h, isolate 07-3013, 24 hours
[20] = 48 h, isolate 07-2964, 48 hours
[21] = 48 h, isolate 07-2965, 48 hours
[22] = 48 h, isolate 07-3013, 48 hours
[23] = 24 h, isolate 07-2665, 24 hours
[24] = 24 h, isolate 07-2737, 24 hours
[25] = 24 h, isolate 07-2829, 24 hours
[26] = 48 h, isolate 07-2737, 48 hours
[27] = 48 h, isolate 07-2829, 48 hours
[28] = 24 h, isolate 07-2044, 24 hours
[29] = 24 h, isolate 07-2078, 24 hours
[30] = 48 h, isolate 07-2044, 48 hours
[31] = 48 h, isolate 07-2078, 48 hours
[32] = 48 h, isolate 07-1755, 48 hours
[33] = 48 h, isolate 07-1867, 48 hours
[34] = 24 h, isolate 07-1333, 24 hours
[35] = 24 h, isolate 07-1502, 24 hours
[36] = 48 h, isolate 07-1333, 48 hours
[37] = 48 h, isolate 07-1502, 48 hours
[38] = 24 h, isolate 06-4126, 24 hours
[39] = 24 h, isolate 07-2039, 24 hours
[40] = 48 h, isolate 07-2039, 48 hours
[41] = 24 h, isolate 07-1743, 24 hours
[42] = 24 h, isolate 07-2055, 24 hours
[43] = 48 h, isolate 07-1743, 48 hours
[44] = 48 h, isolate 07-2055, 48 hours

O=C(CCCCCNC(=O)c1ccccc1S)Nc1ccccc1 [Compound 201, 2-mercapto-N-[5-(phenylcarbamoyl)pentyl]benzamide]
MIC ([1]; 24 hours): 8 mg/L (≈ 23.4 µM)
MIC ([1]; 48 hours): > 64 mg/L
MIC [2, 11]: 8 mg/L (≈ 23.4 µM)
MIC [2, 12]: 4 mg/L (≈ 11.7 µM)
MIC [2, 13]: 4 mg/L (≈ 11.7 µM)
MIC [2, 14]: > 64 mg/L
MIC [2, 15]: > 64 mg/L
MIC [2, 16]: > 64 mg/L
minimum inhibitory concentration (MIC) ([2]; isolate 07-3006, 24 hours): 4 mg/L (≈ 11.7 µM)
minimum inhibitory concentration (MIC) ([2]; isolate 07-3011, 24 hours): 8 mg/L (≈ 23.4 µM)
minimum inhibitory concentration (MIC) ([2]; isolate 07-3012, 24 hours): 8 mg/L (≈ 23.4 µM)
MIC [3, 17]: 2 mg/L (≈ 5.84 µM)
MIC [3, 18]: 1 mg/L (≈ 2.92 µM)
MIC [3, 19]: 2 mg/L (≈ 5.84 µM)
MIC [3, 20]: > 64 mg/L
MIC [3, 21]: > 64 mg/L
MIC [3, 22]: > 64 mg/L
minimum inhibitory concentration (MIC) ([3]; isolate 07-2964, 24 hours): 4 mg/L (≈ 11.7 µM)
minimum inhibitory concentration (MIC) ([3]; isolate 07-2965, 24 hours): 2 mg/L (≈ 5.84 µM)
MIC [4, 23]: 2 mg/L (≈ 5.84 µM)
MIC [4, 24]: 2 mg/L (≈ 5.84 µM)
MIC [4, 25]: 2 mg/L (≈ 5.84 µM)
MIC [4, 26]: 4 mg/L (≈ 11.7 µM)
MIC [4, 27]: 2 mg/L (≈ 5.84 µM)
MIC [5, 28]: 8 mg/L (≈ 23.4 µM)
MIC [5, 29]: > 64 mg/L
MIC [5, 30]: > 64 mg/L
MIC [5, 31]: > 64 mg/L
minimum inhibitory concentration (MIC) ([5]; isolate 07-2044, 24 hours): 4 mg/L (≈ 11.7 µM)
MIC [6, 32]: > 64 mg/L
MIC [6, 33]: > 64 mg/L
MIC [7, 34]: 1 mg/L (≈ 2.92 µM)
MIC [7, 35]: 2 mg/L (≈ 5.84 µM)
MIC [7, 36]: 1 mg/L (≈ 2.92 µM)
MIC [7, 37]: 4 mg/L (≈ 11.7 µM)
minimum inhibitory concentration (MIC) ([7]; isolate 07-1333, 24 hours): 2 mg/L (≈ 5.84 µM)
minimum inhibitory concentration (MIC) ([7]; isolate 07-1333, 48 hours): 2 mg/L (≈ 5.84 µM)
minimum inhibitory concentration (MIC) ([7]; isolate 07-1502, 48 hours): 2 mg/L (≈ 5.84 µM)
MIC ([8]; 24 h, isolate 05-388, 24 hours): 1 mg/L (≈ 2.92 µM)
MIC [8, 38]: 0.5 mg/L (≈ 1.46 µM)
MIC [8, 39]: 1 mg/L (≈ 2.92 µM)
MIC ([8]; 48 h, isolate 05-388, 48 hours): > 64 mg/L
MIC [8, 40]: > 64 mg/L
minimum inhibitory concentration (MIC) ([8]; isolate 06-4126, 24 hours): 1 mg/L (≈ 2.92 µM)
MIC [9, 41]: 2 mg/L (≈ 5.84 µM)
MIC [9, 42]: 2 mg/L (≈ 5.84 µM)
MIC [9, 43]: 2 mg/L (≈ 5.84 µM)
MIC [9, 44]: 2 mg/L (≈ 5.84 µM)
minimum inhibitory concentration (MIC) ([9]; isolate 07-1743, 24 hours): 1 mg/L (≈ 2.92 µM)
minimum inhibitory concentration (MIC) ([9]; isolate 07-1743, 48 hours): 1 mg/L (≈ 2.92 µM)
minimum inhibitory concentration (MIC) ([9]; isolate 07-2055, 24 hours): 1 mg/L (≈ 2.92 µM)
minimum inhibitory concentration (MIC) ([9]; isolate 07-2055, 48 hours): 1 mg/L (≈ 2.92 µM)
activity against the cell line U-87 [10]: most potent on an equimolar basis

O=C(NCCCCCCNC(=O)c1ccccc1S)c1ccccc1S [Compound 204, Bis-1,6-(2-mercaptobenzoylamino)hexane]
MIC ([1]; 24 hours): 8 mg/L (≈ 20.6 µM)
MIC ([1]; 48 hours): > 64 mg/L
MIC [2, 11]: > 64 mg/L
MIC [2, 12]: > 64 mg/L
MIC [2, 13]: > 64 mg/L
MIC [2, 14]: > 64 mg/L
MIC [2, 15]: > 64 mg/L
MIC [2, 16]: > 64 mg/L
MIC [3, 17]: > 64 mg/L
MIC [3, 18]: > 64 mg/L
MIC [3, 19]: > 64 mg/L
MIC [3, 20]: > 64 mg/L
MIC [3, 21]: > 64 mg/L
MIC [3, 22]: > 64 mg/L
MIC [4, 23]: 4 mg/L (≈ 10.3 µM)
MIC [4, 24]: > 64 mg/L
MIC [4, 25]: > 64 mg/L
MIC ([4]; 48 h, isolate 07-2665, 48 hours): 4 mg/L (≈ 10.3 µM)
MIC [4, 26]: > 64 mg/L
MIC [4, 27]: > 64 mg/L
MIC ([5]; 24 h, isolate 07-1870, 24 hours): > 64 mg/L
MIC [5, 28]: > 64 mg/L
MIC [5, 29]: > 64 mg/L
MIC ([5]; 48 h, isolate 07-1870, 48 hours): > 64 mg/L
MIC [5, 30]: > 64 mg/L
MIC [5, 31]: > 64 mg/L
MIC ([6]; 24 h, isolate 07-1399, 24 hours): > 64 mg/L
MIC ([6]; 24 h, isolate 07-1755, 24 hours): > 64 mg/L
MIC ([6]; 24 h, isolate 07-1867, 24 hours): > 64 mg/L
MIC ([6]; 48 h, isolate 07-1399, 48 hours): > 64 mg/L
MIC [6, 32]: > 64 mg/L
MIC [6, 33]: > 64 mg/L
MIC [7, 34]: 0.5 mg/L (≈ 1.29 µM)
MIC [7, 35]: 2 mg/L (≈ 5.15 µM)
MIC ([7]; 24 h, isolate 07-1601, 24 hours): < 0.125 mg/L
MIC [7, 36]: 1 mg/L (≈ 2.57 µM)
MIC [7, 37]: 2 mg/L (≈ 5.15 µM)
MIC ([7]; 48 h, isolate 07-1601, 48 hours): 0.5 mg/L (≈ 1.29 µM)
MIC ([8]; 24 h, isolate 05-388, 24 hours): 2 mg/L (≈ 5.15 µM)
MIC [8, 38]: 1 mg/L (≈ 2.57 µM)
MIC [8, 39]: 1 mg/L (≈ 2.57 µM)
MIC ([8]; 48 h, isolate 05-388, 48 hours): > 64 mg/L
MIC ([8]; 48 h, isolate 06-4126, 48 hours): > 64 mg/L
MIC [8, 40]: > 64 mg/L
MIC [9, 41]: 1 mg/L (≈ 2.57 µM)
MIC [9, 42]: 1 mg/L (≈ 2.57 µM)
MIC [9, 43]: 1 mg/L (≈ 2.57 µM)
MIC [9, 44]: 1 mg/L (≈ 2.57 µM)

— patent publication US8455688B2, “HDAC inhibitors” (Lixte Biotechnology, Inc., priority 2007, dated 2013)
